In data set [1] the test system is tonic flexion-extension convulsions. Description: Supramaximal electroshock antagonism (suppression of convulsions induced in mice by transcranal electroshock). It is filed as in vivo, Male albino ICR-swiss mice. Particulars: Mus musculus, oral gavage, 1 hour after administration, 60 hertz, 25 milliamps, 0.2 second, read-out: Supramaximal Electroshock Antagonism Approximate ED50. How it is done:
These examples illustrate the use of the compounds described in Examples 1 and 2 in suppressing convulsions induced in mice by supramaxal shock.
(§1) Male albino ICR-swiss mice fasted for 5-6 hours and weighing 20-26 grams are used in all procedures. The compounds of the Examples 1 and 2 are dissolved in water and administered in dosages of 0.01 cc per gram body weight to groups of twelve mice via oral gavage at the milligrams per kilograms per body weight in the table below. One hour after administration of the compound, the mice are given a transcranal electroshock, 60 hertz, 25 milliamps of 0.2 second duration. This stimulus is approximately 3 times the current required to produce tonic flexion-extension convulsions in 100% of the control mice tested. The animals are then observed, and the number undergoing convulsion noted. When the ED50 is bracketed (at least one dose above and one dose below), an estimate of the ED50 is calculated. The acute LD50 is determined as follows: Groups of four mice each are given selected doses of the test compound and placed in plastic cages with food and water ad lib. Twenty-four hours later, the number of dead mice is noted. When the LD50 is bracketed (at least one dose above and one below) an estimate of the LD50 is calculated. The values for Valproic acid and Dilantin are included in the table for comparison.
On the technique in general: Protection in the maximal electroshock model is a classic sign of anticonvulsant action.

A short description of data set [2]: Solubility in water and ethyl alcohol. In kind it is physicochemical. Particulars: recrystallized product.
The next data set in a line: in vivo. The conditions noted are these: mouse; for LD50 at 24 h: oral gavage, mice, read-out: Acute (24 hr.) Toxicity Approximate LD50; for safety ratio (LD50/ED50): po, LD50 (24 hr., mice) divided by ED50 (supramaximal electroshock), read-out: Approximate Safety Ratio LD50/ED50. Here is the method: as §1
For data set [3] the following is noted: treatment of epilepsy, known drug; cited from earlier work.

The term ED50 denotes the dose at which the effect has come halfway, by size or by number of responders. A word on the LD50: it is the dose expected to kill half of the subjects tested. As to `COc1cc(C(=O)NCCN(C)C)c(OC)c2ccccc12.Cl` [1,4-dimethoxy-N-(2-dimethylaminoethyl)-2-naphthalene carboxamide hydrochloride], the ED50 in data set [1] is approximately 45 mg/kg. Further, in data set [2], the “solubility in ethyl alcohol” value was “sparingly soluble” and the solubility in water entry is “sparingly soluble”. Further, in the data set “in vivo”, the LD50 at 24 h was approximately 750 mg/kg and the safety ratio (LD50/ED50) was approximately 17.

For the compound `CCCC(CCC)C(=O)O` [Valproic Acid, reference compound], the ED50 in data set [1] is approximately 600 mg/kg. The “dosage needed to be effective relative to toxic dosage” value in data set [3] is recorded as “very close to those which are acutely toxic”. Moreover, in the data set “in vivo”, the median lethal dose (LD50) at 24 h was approximately 1420 mg/kg.

Consider `COc1cc(C(=O)NCCCN(C)C)c(OC)c2ccccc12.Cl` [1,4-dimethoxy-N-(3-dimethylaminopropyl)-2-naphthalenecarboxamide hydrochloride], for which, in data set [1], the ED50 was approximately 75 mg/kg. In data set [2], the “solubility in ethyl alcohol” value was “sparingly soluble” and the solubility in water result is given as “sparingly soluble”. Moreover, in “in vivo”, the 50% lethal dose (LD50) at 24 h is approximately 750 mg/kg and the safety ratio (LD50/ED50) was approximately 10.

Consider `O=C1NC(=O)C(c2ccccc2)(c2ccccc2)N1` [Dilantin, phenytoin, reference compound], for which the median effective dose (ED50) in data set [1] is approximately 13 mg/kg. Also, in data set [3], the “serious chronic side effects” value is “megaloblastic anemia and osteomalacia”. For the same compound, the LD50 at 24 h in “in vivo” was approximately 417 mg/kg.

Source of the values: patent US4590063A, “Anticonvulsants” (Adria Laboratories, Inc., priority 1985, dated 1986).
